Question: With `C[C@@H](Nc1ncnc2[nH]c(-c3ccc(CN4CCNCC4)cc3)cc12)c1ccccc1` [Example 1, ((R)-1-Phenyl-ethyl)-[6-(4-piperazin-1-ylmethyl-phenyl)-7H-pyrrolo[2,3-d]pyrimidin-4-yl]-amine] as the compound, how does the melting point read?
Answer: 240 to 242 °C

Reference: patent publication US20090247548A1, “PYRROLOPYRIMIDINE DERIVATIVES FOR TREATING PROLIFERATIVE DISEASES” (priority 2004, published 2009)
